Among the data in the Kinase Knowledgebase extract (Sharma et al. 2016) are IC50 values, retold here.

The target of the test is PIK3CA (human) (UniProt P42336). Description: Assessment of PIK3CA Kinase Activity.

The IC50 is the concentration that gives 50% inhibition.

Structures are written as SMILES.

PIK3CA (human), sequence (P42336 whole entry, looked up): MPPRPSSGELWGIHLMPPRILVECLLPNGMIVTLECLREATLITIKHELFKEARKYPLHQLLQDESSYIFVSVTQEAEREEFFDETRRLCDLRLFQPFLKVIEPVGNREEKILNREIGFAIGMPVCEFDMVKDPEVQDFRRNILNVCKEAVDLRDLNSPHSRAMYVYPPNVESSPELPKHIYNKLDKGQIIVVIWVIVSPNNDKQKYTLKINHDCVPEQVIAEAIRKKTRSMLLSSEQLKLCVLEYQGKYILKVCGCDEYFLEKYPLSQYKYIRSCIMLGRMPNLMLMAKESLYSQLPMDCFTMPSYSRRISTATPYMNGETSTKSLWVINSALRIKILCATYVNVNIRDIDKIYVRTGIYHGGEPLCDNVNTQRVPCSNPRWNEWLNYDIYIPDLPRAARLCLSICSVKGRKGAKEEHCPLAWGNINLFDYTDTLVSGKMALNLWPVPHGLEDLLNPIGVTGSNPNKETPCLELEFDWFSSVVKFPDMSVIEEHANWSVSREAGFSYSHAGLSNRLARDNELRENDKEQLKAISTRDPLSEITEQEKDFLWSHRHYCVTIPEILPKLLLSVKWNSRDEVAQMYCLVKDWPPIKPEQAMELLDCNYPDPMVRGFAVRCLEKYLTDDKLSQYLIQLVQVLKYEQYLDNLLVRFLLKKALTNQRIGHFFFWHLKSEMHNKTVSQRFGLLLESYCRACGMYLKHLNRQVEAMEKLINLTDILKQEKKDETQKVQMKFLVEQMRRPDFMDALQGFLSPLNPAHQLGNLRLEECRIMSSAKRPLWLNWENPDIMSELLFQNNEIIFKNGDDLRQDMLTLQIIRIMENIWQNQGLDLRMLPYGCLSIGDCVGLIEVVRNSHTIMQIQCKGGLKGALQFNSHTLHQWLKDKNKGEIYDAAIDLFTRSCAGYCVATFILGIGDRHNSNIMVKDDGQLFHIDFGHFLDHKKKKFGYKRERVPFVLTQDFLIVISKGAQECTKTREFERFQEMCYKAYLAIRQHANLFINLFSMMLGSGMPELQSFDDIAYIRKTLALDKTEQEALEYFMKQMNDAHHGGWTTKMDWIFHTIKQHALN

The compound `COC(=O)Nc1ccc(-c2nc(N3CCOCC3)c3sccc3n2)cc1` had an IC50 of 1600 nM. This counts as single-digit micromolar.

`CNC(=O)Nc1ccc(-c2nc(N3CCOCC3)c3sccc3n2)cc1`: the IC50 worked out at 93 nM.

`CCNC(=O)Nc1ccc(-c2nccc(N3CCOCC3)n2)cc1` registered a 50% inhibitory concentration (IC50) of 415 nM.

`O=C(Nc1ccc(-c2nc(N3CCOCC3)c3sccc3n2)cc1)NC1CC1`: the IC50 was 636 nM. Compared with the last compound, the IC50 is about 1.5-fold higher.

For the compound `O=C(Nc1ccc(-c2cc(N3CCOCC3)nc(-c3ccccc3)n2)cc1)NC1CC1`, the IC50 is 3070 nM.

`O=C(Nc1ccncc1)Nc1ccc(-c2nccc(N3CCOCC3)n2)cc1` displayed an IC50 of 15 nM.

Consider `CN(C)CCN(C)C(=O)c1ccc(NC(=O)Nc2ccc(-c3nc(O)c(NC=O)c(N4CCOCC4)n3)cc2)cc1`, for which the IC50 was found to be 76 nM.

Regarding `CNC(=O)Nc1ccc(-c2cc(N3CCOCC3)c3cnn(C4CCN(Cc5ccccc5)CC4)c3n2)cc1`, the IC50 is 592 nM.

Compound `CN1CCN(c2ccc(NC(=O)Nc3ccc(-c4ccnc(N5CCOCC5)n4)cc3)cn2)CC1` yielded an IC50 of 79 nM.

The compound `CN(C)CCN(C)C(=O)c1ccc(NC(=O)Nc2ccc(-c3nc(O)c(N)c(N4CCOCC4)n3)cc2)cc1` gave an IC50 of 31 nM.

Regarding `O=C(Nc1ccc(-c2nccc(N3CCOCC3)n2)cc1)Nc1ccc(N2CCOCC2)nc1`, the half-maximal inhibitory concentration (IC50) came to 112 nM. Against the preceding compound, the IC50 is about 3.6-fold higher.

As to `CC(C)N1CCN(C(=O)c2ccc(NC(=O)Nc3ccc(-c4nc(C5CCOCC5)cc(N5CCOC[C@H]5C)n4)cc3)cc2)CC1`, the 50% inhibitory concentration (IC50) stood at 146 nM.

With `C[C@@H]1COCCN1c1cc(C2CCOCC2)nc(-c2ccc(NC(=O)Nc3ccc(N4CCN(C)CC4)cc3)cc2)n1`, the IC50 was 420 nM.

The compound `C[C@@H]1COCCN1c1cc(N2CCOC[C@H]2C)nc(-c2ccc(NC(=O)Nc3ccc(N4CCN(C)CC4)cc3)cc2)n1` had a half-maximal inhibitory concentration (IC50) of 565 nM.

Take `C=CCc1cnc(-c2ccc(NC(=O)Nc3cccnc3)cc2)nc1N1CCOCC1`: the IC50 came out at 35 nM. Compared with the last compound, the IC50 is about 16-fold lower.

The compound `CN1CCN(c2ccc(NC(=O)Nc3ccc(-c4cc(N5CCOCC5)nc(-c5ccccc5)n4)cc3)cc2)CC1` returned a concentration for half-maximal inhibition (IC50) of 7770 nM.

As to `O=C(Nc1ccncc1)Nc1ccc(-c2cc3nccn3c(N3CCOCC3)n2)cc1`, the IC50 is 654 nM.

In turn, `O=C(Nc1ccncc1)Nc1ccc(-c2ncc(Cl)c(N3CCOCC3)n2)cc1` displayed an IC50 of 42 nM.

Compound `Cc1ccc2c(N3CCOCC3)nc(-c3ccc(NC(=O)Nc4ccncc4)cc3)nc2c1` came in with a 50% inhibitory concentration (IC50) of 35 nM.

In the case of `C[C@@H]1COCCN1c1cc(N2CCOC[C@H]2C)nc(-c2ccc(NC(=O)Nc3cccnc3)cc2)n1`, the IC50 was found to be 983 nM.

In turn, `C[C@@H]1COCCN1c1cc(N2CCOC[C@H]2C)nc(-c2ccc(NC(=O)Nc3ccc(C(=O)N4CCN(C)CC4)cc3)cc2)n1` came in with an IC50 of 77.5 nM. Compared with the last compound, the IC50 is about 13-fold lower.

For `O=C(Nc1ccc(-c2ncc(-c3ccccc3)c(N3CCOCC3)n2)cc1)Nc1cccnc1`, the IC50 turned out to be 53 nM.

In turn, `CC(C)N1CCN(C(=O)c2ccc(NC(=O)Nc3ccc(-c4nc(N5CCOC[C@H]5C)cc(N5CCOC[C@H]5C)n4)cc3)cc2)CC1` returned a 50% inhibitory concentration (IC50) of 113 nM.

`CNC(=O)Nc1ccc(-c2ccnc(N3CCOCC3)n2)cc1` returned a concentration for half-maximal inhibition (IC50) of 394 nM.

Turning to `CNC(=O)Nc1ccc(-c2cc3nccn3c(N3CCOCC3)n2)cc1`, the IC50 is 2970 nM.

Regarding `O=C(Nc1ccc(-c2ncc([N+](=O)[O-])c(N3CCOCC3)n2)cc1)Nc1cccnc1`, the IC50 was 155 nM.

As to `O=C(Nc1ccncc1)Nc1ccc(-c2cc(N3CCOCC3)nc(N3CCOCC3)n2)cc1`, the IC50 was determined as 16 nM.

For `C[C@@H]1COCCN1c1cc(N2CCOC[C@H]2C)nc(-c2ccc(NC(=O)Nc3ccncc3)cc2)n1`, the IC50 is 572 nM.

`O=C(Nc1ccncc1)Nc1ccc(-c2nc(N3CCOCC3)cc(N3CCOCC3)n2)cc1` yielded an IC50 of 21 nM.

In turn, `CNC(=O)Nc1ccc(-c2nccc(N3CCOCC3)n2)cc1` showed an IC50 of 384 nM. Compared with the last compound, the IC50 is about 18-fold higher.

For the compound `O=C(Nc1ccc(-c2ccnc(N3CCOCC3)n2)cc1)OCCO`, the 50% inhibitory concentration (IC50) came out at 2860 nM.

Take `O=C(Nc1ccc(-c2nccc(N3CCOCC3)n2)cc1)Nc1ccc(N2CCOCC2)cc1`: the IC50 amounted to 35 nM.

`CCNC(=O)Nc1ccc(-c2nc(N3CCOCC3)c3sccc3n2)cc1`: the IC50 worked out at 312 nM.

`O=C(Nc1ccc(-c2ccnc(N3CCOCC3)n2)cc1)Nc1cccnc1` returned an IC50 of 42 nM.

Take `CN1CCN(c2ccc(NC(=O)Nc3ccc(-c4nccc(N5CCOCC5)n4)cc3)cn2)CC1`: the IC50 stood at 46 nM.

Regarding `C[C@@H]1COCCN1c1cc(C2CCOCC2)nc(-c2ccc(NC(=O)Nc3cccnc3)cc2)n1`, the IC50 came out at 684 nM.

`O=C(NCCF)Nc1ccc(-c2nc(N3CCOCC3)c3sccc3n2)cc1`: the IC50 was 364 nM.

Regarding `O=C(Nc1ccccc1)Nc1ccc(-c2nc(N3CCOCC3)c3sccc3n2)cc1`, the IC50 came out at 7 nM.

Compound `O=C(Nc1ccc(-c2nccc(N3CCOCC3)n2)cc1)OCCO` had an IC50 of 2550 nM.

On to `C[C@@H]1COCCN1c1cc(C2CCOCC2)nc(-c2ccc(NC(=O)Nc3ccc(C(=O)N4CCN(C)CC4)cc3)cc2)n1`, for which the IC50 was determined as 80.5 nM.

As for `O=C(Nc1ccc(-c2nc(N3CCOCC3)c3sccc3n2)cc1)Nc1cccnc1`, the IC50 was found to be 11 nM. This IC50 is about 7.3-fold lower than that of the compound before.

The compound `O=C(Nc1ccc(-c2cc3nccn3c(N3CCOCC3)n2)cc1)NC1CC1` came in with an IC50 of 5080 nM. Compared with the last compound, the IC50 is about 460-fold higher.

`O=C(Nc1ccc(-c2nccc(N3CCOCC3)n2)cc1)NC1CC1` came in with a half-inhibitory concentration (IC50) of 2750 nM. This IC50 is about 1.8-fold lower than that of the compound before.

`CN1CCN(c2ccc(NC(=O)Nc3ccc(-c4nccc(N5CCOCC5)n4)cc3)cc2)CC1` registered an IC50 of 19 nM. This IC50 lies about 140-fold lower than the previous one.

The compound `O=C(NCCO)Nc1ccc(-c2nc(N3CCOCC3)c3sccc3n2)cc1` came in with an IC50 of 141 nM.

`O=CNc1c(O)nc(-c2ccc(NC(=O)Nc3ccc(C(=O)NCCN4CCCCC4)cc3)cc2)nc1N1CCOCC1` had an IC50 of 202 nM.

`C[C@@H]1COCCN1c1cc(C2CCOCC2)nc(-c2ccc(NC(=O)Nc3ccncc3)cc2)n1` registered an IC50 of 383 nM. This IC50 lies about 1.9-fold higher than the previous one.

With `CN(C)CCOc1ccc(NC(=O)Nc2ccc(-c3nccc(N4CCOCC4)n3)cc2)cc1`, the IC50 is 22 nM.

The compound `C[C@@H]1COCCN1c1cc(C2CCOCC2)nc(-c2ccc(NC(=O)Nc3ccc(N4CCN(C)CC4)nc3)cc2)n1` displayed an IC50 of 694 nM.

For `O=C(Nc1ccncc1)Nc1ccc(-c2nc(N3CCOCC3)c3sccc3n2)cc1`, the IC50 was 9 nM.
